Drawing on patent US20260028365A1 (BIOGEN MA INC., priority 2022, published 2026), this text covers IC50 for 23 compounds.

Read-outs that look alike come from different tables or passages of the source. Where only a bound is given, the exact number is not on record here.

In one assay the target is JAK1 (Homo sapiens (Human), UniProt P23458). Briefly: pSTAT3 Cell Assay (MSD, TF1 cells). The class given is cell-based. Put shortly:
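IC50 values derive from 4-parameter logistic fits of normalized pSTAT3 signal, measured by MSD with anti-STAT3 antibodies. TF1 cells, serum-starved beforehand, received compound for 1 hour (top concentration 10 μM, four-fold steps, 10 points) before a 15-minute IL-6 (30 ng/mL) stimulus.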

Another assay addresses Tyk2 (Homo sapiens (Human), UniProt P29597). Briefly: pSTAT4 Cell Assay (MSD, NK92 cells). The class given is cell-based.
Another assay deals with JH2 domain of human Tyk2 (Homo sapiens (Human), UniProt P29597). Briefly: JH2 Biochemical Assay (TR-FRET probe displacement). Type of assay: binding.
Sequence of JH2 domain of human Tyk2 (P29597 575-876): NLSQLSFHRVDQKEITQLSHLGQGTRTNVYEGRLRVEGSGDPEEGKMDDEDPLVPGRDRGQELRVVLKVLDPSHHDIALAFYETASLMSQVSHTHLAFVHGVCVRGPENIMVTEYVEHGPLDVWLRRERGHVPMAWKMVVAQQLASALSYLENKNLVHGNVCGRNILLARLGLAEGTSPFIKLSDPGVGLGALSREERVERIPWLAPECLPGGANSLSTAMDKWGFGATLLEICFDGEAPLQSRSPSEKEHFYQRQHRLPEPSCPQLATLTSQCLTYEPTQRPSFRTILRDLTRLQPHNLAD
For a further assay, the target named is JAK2 (Homo sapiens (Human), UniProt O60674). Briefly: pSTAT5 Cell Assay (MSD, TF1 cells). Type of assay: cell-based. In short, it runs like this:
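Serum-starved TF1 cells were pretreated with compound for 1 h (10-point four-fold series from 10 μM), then stimulated with 30 ng/mL IL-3 for 15 min. pSTAT5 in lysates was measured by MSD immunoassay. IC50 came from a 4-parameter logistic fit.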

Where [1] appears, read: TR-FRET probe displacement, JH2 domain.
The mark [2] stands for this setting: TR-FRET probe displacement, JH2 domain of human Tyk2.
Where [3] appears, read: JH2 domain of human Tyk2, TR-FRET probe displacement.

Sequence of JAK1 (P23458 whole entry): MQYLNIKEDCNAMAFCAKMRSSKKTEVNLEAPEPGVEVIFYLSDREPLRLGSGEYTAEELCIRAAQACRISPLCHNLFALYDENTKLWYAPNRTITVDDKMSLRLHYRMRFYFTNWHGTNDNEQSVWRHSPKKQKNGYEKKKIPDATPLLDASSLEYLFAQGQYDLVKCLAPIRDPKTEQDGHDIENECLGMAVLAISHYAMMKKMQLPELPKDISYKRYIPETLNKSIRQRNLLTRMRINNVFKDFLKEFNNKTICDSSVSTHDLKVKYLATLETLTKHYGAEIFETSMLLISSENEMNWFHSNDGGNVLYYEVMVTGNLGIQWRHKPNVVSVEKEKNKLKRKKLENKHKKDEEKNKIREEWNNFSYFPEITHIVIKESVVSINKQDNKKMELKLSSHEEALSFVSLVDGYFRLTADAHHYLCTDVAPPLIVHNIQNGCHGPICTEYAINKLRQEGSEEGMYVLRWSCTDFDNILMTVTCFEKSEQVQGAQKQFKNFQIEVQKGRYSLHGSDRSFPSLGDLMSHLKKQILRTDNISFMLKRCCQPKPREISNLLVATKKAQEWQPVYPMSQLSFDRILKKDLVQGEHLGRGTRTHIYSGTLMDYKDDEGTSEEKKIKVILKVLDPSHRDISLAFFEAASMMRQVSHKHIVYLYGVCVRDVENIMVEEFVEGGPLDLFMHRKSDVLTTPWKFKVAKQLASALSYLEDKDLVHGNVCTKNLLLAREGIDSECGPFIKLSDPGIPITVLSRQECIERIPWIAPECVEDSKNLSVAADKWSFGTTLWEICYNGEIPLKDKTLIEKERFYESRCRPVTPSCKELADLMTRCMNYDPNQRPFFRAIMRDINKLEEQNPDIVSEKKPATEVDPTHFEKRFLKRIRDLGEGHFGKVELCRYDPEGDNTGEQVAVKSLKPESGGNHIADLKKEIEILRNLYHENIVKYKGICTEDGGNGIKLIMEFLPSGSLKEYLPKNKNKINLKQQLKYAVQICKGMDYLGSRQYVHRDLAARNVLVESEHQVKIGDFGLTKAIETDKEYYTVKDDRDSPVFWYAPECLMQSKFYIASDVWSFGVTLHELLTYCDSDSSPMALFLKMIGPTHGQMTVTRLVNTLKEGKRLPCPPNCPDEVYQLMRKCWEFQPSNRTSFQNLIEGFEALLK
Sequence of Tyk2 (P29597 whole entry, the tested form may be a part): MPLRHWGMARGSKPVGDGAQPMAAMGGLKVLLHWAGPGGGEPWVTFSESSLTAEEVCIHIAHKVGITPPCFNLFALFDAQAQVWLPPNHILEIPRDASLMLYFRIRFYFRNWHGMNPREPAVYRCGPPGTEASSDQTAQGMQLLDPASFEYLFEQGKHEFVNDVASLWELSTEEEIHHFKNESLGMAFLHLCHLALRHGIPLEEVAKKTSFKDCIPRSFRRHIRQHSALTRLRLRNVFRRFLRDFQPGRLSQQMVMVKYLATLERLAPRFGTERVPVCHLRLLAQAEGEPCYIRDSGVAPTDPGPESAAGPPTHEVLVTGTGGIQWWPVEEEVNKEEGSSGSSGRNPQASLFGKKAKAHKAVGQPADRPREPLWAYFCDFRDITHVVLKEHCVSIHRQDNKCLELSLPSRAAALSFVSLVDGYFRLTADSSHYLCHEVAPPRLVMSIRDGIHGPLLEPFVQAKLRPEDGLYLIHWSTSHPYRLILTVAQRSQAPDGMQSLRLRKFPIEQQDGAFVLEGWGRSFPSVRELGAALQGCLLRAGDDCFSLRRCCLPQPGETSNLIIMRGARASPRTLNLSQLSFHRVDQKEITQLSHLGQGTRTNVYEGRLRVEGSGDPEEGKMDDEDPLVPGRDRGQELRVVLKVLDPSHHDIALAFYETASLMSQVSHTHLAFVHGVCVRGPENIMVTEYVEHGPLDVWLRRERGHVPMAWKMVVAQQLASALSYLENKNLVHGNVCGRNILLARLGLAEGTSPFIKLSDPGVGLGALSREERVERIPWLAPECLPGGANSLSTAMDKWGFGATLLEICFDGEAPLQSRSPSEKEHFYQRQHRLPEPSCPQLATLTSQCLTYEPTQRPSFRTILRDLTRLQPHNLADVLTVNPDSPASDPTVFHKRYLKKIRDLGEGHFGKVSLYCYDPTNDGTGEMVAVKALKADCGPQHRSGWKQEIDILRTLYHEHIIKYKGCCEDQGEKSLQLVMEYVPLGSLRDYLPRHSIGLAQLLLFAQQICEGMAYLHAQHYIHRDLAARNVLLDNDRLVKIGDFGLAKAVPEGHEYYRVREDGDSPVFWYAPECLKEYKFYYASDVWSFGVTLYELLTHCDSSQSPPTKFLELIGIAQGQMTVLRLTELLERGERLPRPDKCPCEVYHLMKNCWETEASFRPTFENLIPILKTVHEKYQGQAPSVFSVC
Sequence of JAK2 (O60674 whole entry): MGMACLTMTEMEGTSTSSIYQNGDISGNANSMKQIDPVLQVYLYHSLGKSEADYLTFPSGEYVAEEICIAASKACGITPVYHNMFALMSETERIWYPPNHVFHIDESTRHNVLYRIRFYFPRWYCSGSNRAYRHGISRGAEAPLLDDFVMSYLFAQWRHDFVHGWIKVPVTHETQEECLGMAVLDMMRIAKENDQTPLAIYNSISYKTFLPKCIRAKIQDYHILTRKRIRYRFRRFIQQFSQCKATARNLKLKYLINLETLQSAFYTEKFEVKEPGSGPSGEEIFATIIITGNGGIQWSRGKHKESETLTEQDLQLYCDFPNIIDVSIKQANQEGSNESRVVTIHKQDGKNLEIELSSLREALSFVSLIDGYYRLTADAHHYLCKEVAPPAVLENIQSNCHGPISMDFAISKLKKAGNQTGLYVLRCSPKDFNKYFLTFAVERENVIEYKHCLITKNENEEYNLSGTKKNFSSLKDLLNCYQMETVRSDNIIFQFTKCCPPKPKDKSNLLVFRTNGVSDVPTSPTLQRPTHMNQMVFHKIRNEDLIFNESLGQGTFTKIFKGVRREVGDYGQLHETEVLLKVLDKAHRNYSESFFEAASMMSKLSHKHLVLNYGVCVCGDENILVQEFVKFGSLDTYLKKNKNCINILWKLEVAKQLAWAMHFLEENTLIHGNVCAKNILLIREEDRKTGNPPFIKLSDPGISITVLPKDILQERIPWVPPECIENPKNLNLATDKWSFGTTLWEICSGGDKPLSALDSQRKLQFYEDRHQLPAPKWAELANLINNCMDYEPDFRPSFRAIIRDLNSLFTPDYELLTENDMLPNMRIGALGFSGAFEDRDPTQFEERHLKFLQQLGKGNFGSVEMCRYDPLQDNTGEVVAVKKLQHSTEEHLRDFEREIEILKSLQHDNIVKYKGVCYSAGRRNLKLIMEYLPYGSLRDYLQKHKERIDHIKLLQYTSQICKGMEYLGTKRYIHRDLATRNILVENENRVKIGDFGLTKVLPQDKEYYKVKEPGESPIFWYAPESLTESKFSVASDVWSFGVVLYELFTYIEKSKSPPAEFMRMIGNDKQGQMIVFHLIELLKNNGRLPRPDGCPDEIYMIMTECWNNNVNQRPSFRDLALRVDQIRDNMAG

Consider `CCc1cc(Nc2cc(NC(N)=O)ncc2-c2cnccn2)nc(C(C)(F)F)n1` [Example 920], for which the IC50 against JAK1 (IL-6 stimulated) was at least 1 µM; on Tyk2 it was at most 0.01 µM; at JH2 domain of human Tyk2 (setting [1]), at most 0.01 µM; against JAK2 (IL-3 stimulated) it was at least 1 µM.
For the compound `CCOc1cnc(NC(C)=O)cc1Nc1cc(OCCOC)nc(C(C)(F)F)n1` [Example 32, N-(4-((2-(1,1-difluoroethyl)-6-(2-methoxyethoxy)pyrimidin-4-yl)amino)-5-ethoxypyridin-2-yl)acetamide], the IC50 against JAK1 (IL-6 stimulation, MSD) was at least 1 µM; against Tyk2 (MSD), 0.01 to 0.1 µM; on JH2 domain of human Tyk2 (setting [2]) it was at most 0.01 µM; against JAK2 (IL-3 stimulation, MSD) it was at least 1 µM.
With `CC(=O)Nc1cc(Nc2cc(C)nc(C(C)(F)F)n2)c(-c2nc3c(s2)CCN(C)C3)cn1` [Example 237, N-(4-((2-(1,1-difluoroethyl)-6-methylpyrimidin-4-yl)amino)-5-(5-methyl-4,5,6,7-tetrahydrothiazolo[4,5-c]pyridin-2-yl)pyridin-2-yl)acetamide], the IC50 on JAK1 (IL-6 stimulation, MSD) was at least 1 µM; against Tyk2 (MSD), at most 0.01 µM; on JH2 domain of human Tyk2 (setting [2]) it was at most 0.01 µM; against JAK2 (IL-3 stimulation, MSD), at least 1 µM.
For `CCOc1cnc(NC(C)=O)cc1Nc1cc(-c2cnn(C(C)C)c2)nc(C(C)(F)F)n1` [Example 306, N-(4-((2-(1,1-difluoroethyl)-6-(1-isopropyl-1H-pyrazol-4-yl)pyrimidin-4-yl)amino)-5-ethoxypyridin-2-yl)acetamide], the 50% inhibitory concentration (IC50) against JAK1 (IL-6 stimulation, MSD) is at least 1 µM; against Tyk2 (MSD), at most 0.01 µM; on JH2 domain of human Tyk2 (setting [2]), at most 0.01 µM; on JAK2 (IL-3 stimulation, MSD), at least 1 µM.
As for `CC(=O)Nc1cc(Nc2ccnc(C(C)(F)F)n2)c(-c2ccc(F)cn2)cn1` [Example 580, N-(4′-((2-(1,1-difluoroethyl)pyrimidin-4-yl)amino)-5-fluorO[2,3′-bipyridin]-6′-yl)acetamide], the IC50 on JAK1 (IL-6 stimulated, MSD) is at least 1 µM; at Tyk2 (MSD) it was at most 0.01 µM; on JH2 domain of human Tyk2 (setting [3]), at most 0.01 µM; on JAK2 (IL-3 stimulated, MSD), at least 1 µM.
Regarding `COCc1ccc(-c2cnc(NC(C)=O)cc2Nc2cc(C)nc(C(C)(F)F)n2)nc1` [Example 634, N-(4′-((2-(1,1-difluoroethyl)-6-methylpyrimidin-4-yl)amino)-5-(methoxymethyl)-[2,3′-bipyridin]-6′-yl)acetamide], the IC50 against JAK1 (IL-6 stimulated, MSD) is at least 1 µM; on Tyk2 (MSD), at most 0.01 µM; on JH2 domain of human Tyk2 (setting [3]) it was at most 0.01 µM; at JAK2 (IL-3 stimulated, MSD), at least 1 µM.
`CC(=O)Nc1cc(Nc2ccnc(C(C)(F)F)n2)c(-c2ncc(OC(F)F)cn2)cn1` [Example 825, N-(4-((2-(1,1-difluoroethyl)pyrimidin-4-yl)amino)-5-(5-(difluoromethoxy)pyrimidin-2-yl)pyridin-2-yl)acetamide]: the IC50 on JAK1 (IL-6 stimulated) is at least 1 µM; against Tyk2 it was 0.01 to 0.1 µM; on JH2 domain of human Tyk2 (setting [1]) it was at most 0.01 µM; at JAK2 (IL-3 stimulated) it was at least 1 µM.
Regarding `CCc1cc(Nc2cc(NC(C)=O)ncc2-c2ccncn2)nc(C(C)(F)F)n1` [Example 799, N-(4-((2-(1,1-difluoroethyl)-6-ethylpyrimidin-4-yl)amino)-5-(pyrimidin-4-yl)pyridin-2-yl)acetamide], the IC50 was at least 1 µM on JAK1 (IL-6 stimulated), at most 0.01 µM against Tyk2, at most 0.01 µM on JH2 domain of human Tyk2 (setting [1]) and at least 1 µM against JAK2 (IL-3 stimulated).
For `CCOc1cnc(NC(C)=O)cc1Nc1cc(O[C@H]2C[C@H](OC)C2)nc(C(C)(F)F)n1` [Example 16, N-(4-((2-(1,1-difluoroethyl)-6-((1r,3r)-3-methoxycyclobutoxy)pyrimidin-4-yl)amino)-5-ethoxypyridin-2-yl)acetamide], the IC50 was at least 1 µM at JAK1 (IL-6 stimulation, MSD); at most 0.01 µM at Tyk2 (MSD); at most 0.01 µM at JH2 domain of human Tyk2 (setting [2]); at least 1 µM against JAK2 (IL-3 stimulation, MSD).
Take `CCc1cc(Nc2cc(NC(C)=O)ncc2-c2ccc(CN3CCOCC3)cn2)nc(C(C)(F)F)n1` [Example 268, N-(4′-((2-(1,1-difluoroethyl)-6-ethylpyrimidin-4-yl)amino)-5-(morpholinomethyl)-[2,3′-bipyridin]-6′-yl)acetamide]: the IC50 on JAK1 (IL-6 stimulation, MSD) is at least 1 µM; against Tyk2 (MSD) it was at most 0.01 µM; on JH2 domain of human Tyk2 (setting [2]) it was at most 0.01 µM; against JAK2 (IL-3 stimulation, MSD), at least 1 µM.
For `CCOc1cnc(NC(=O)OC)cc1Nc1cc(C)nc(C(C)(F)F)n1` [Example 360, methyl (4-((2-(1,1-difluoroethyl)-6-methylpyrimidin-4-yl)amino)-5-ethoxypyridin-2-yl)carbamate], the IC50 against JAK1 (IL-6 stimulation, MSD) was at least 1 µM; against Tyk2 (MSD), 0.01 to 0.1 µM; on JH2 domain of human Tyk2 (setting [2]) it was at most 0.01 µM; against JAK2 (IL-3 stimulation, MSD), at least 1 µM.
With `CCc1cc(Nc2cc(NC(C)=O)ncc2-c2cnc(COC)cn2)nc(C(C)(F)F)n1` [Example 836, N-(4-((2-(1,1-difluoroethyl)-6-ethylpyrimidin-4-yl)amino)-5-(5-(methoxymethyl)pyrazin-2-yl)pyridin-2-yl)acetamide], the IC50 on JAK1 (IL-6 stimulated) was at least 1 µM; against Tyk2, at most 0.01 µM; at JH2 domain of human Tyk2 (setting [1]), at most 0.01 µM; against JAK2 (IL-3 stimulated), at least 1 µM.
Consider `CO[C@H]1C[C@@H](Oc2cnc(NC(C)=O)cc2Nc2cc(OC3CC3)nc(C(C)(F)F)n2)C1` [Example 351, N-(4-((6-cyclopropoxy-2-(1,1-difluoroethyl)pyrimidin-4-yl)amino)-5-((1s,3s)-3-methoxycyclobutoxy)pyridin-2-yl)acetamide], for which the IC50 was at least 1 µM on JAK1 (IL-6 stimulation, MSD); at most 0.01 µM on Tyk2 (MSD); at most 0.01 µM on JH2 domain of human Tyk2 (setting [2]); at least 1 µM on JAK2 (IL-3 stimulation, MSD).
For `CC(=O)Nc1cc(Nc2cc(C)nc(C(C)(F)F)n2)c(-c2cc3n(n2)CCOC3)cn1` [Example 528, N-(4-((2-(1,1-difluoroethyl)-6-methylpyrimidin-4-yl)amino)-5-(6,7-dihydrO4H-pyrazolo[5,1-c][1,4]oxazin-2-yl)pyridin-2-yl)acetamide], the IC50 is at least 1 µM against JAK1 (IL-6 stimulated, MSD); at most 0.01 µM against Tyk2 (MSD); at most 0.01 µM on JH2 domain of human Tyk2 (setting [3]); at least 1 µM against JAK2 (IL-3 stimulated, MSD).
On to `CC(=O)Nc1cc(Nc2ccnc(C(C)(F)F)n2)c(-c2cc(C)ncn2)cn1` [Example 201, N-(4-((2-(1,1-difluoroethyl)pyrimidin-4-yl)amino)-5-(6-methylpyrimidin-4-yl)pyridin-2-yl)acetamide], for which the IC50 against JAK1 (IL-6 stimulation, MSD) is at least 1 µM; at Tyk2 (MSD), 0.01 to 0.1 µM; on JH2 domain of human Tyk2 (setting [2]) it was at most 0.01 µM; on JAK2 (IL-3 stimulation, MSD), at least 1 µM.
As for `CCOc1cnc(NC(C)=O)cc1Nc1cc(C)nc(C(C)(F)F)n1` [Example 10, N-(4-((2-(1,1-difluoroethyl)-6-methylpyrimidin-4-yl)amino)-5-ethoxypyridin-2-yl)acetamide], the IC50 was at least 1 µM at JAK1 (IL-6 stimulation, MSD); 0.01 to 0.1 µM against Tyk2 (MSD); at most 0.01 µM at JH2 domain of human Tyk2 (setting [2]); at least 1 µM on JAK2 (IL-3 stimulation, MSD).
On to `CC(=O)Nc1cc(Nc2cc(C)nc(C(C)(F)F)n2)c(-c2cocn2)cn1` [Example 596, N-(4-((2-(1,1-difluoroethyl)-6-methylpyrimidin-4-yl)amino)-5-(oxazol-4-yl)pyridin-2-yl)acetamide], for which the concentration for half-maximal inhibition (IC50) is at least 1 µM on JAK1 (IL-6 stimulated, MSD); at most 0.01 µM on Tyk2 (MSD); at most 0.01 µM at JH2 domain of human Tyk2 (setting [3]); at least 1 µM at JAK2 (IL-3 stimulated, MSD).
On to `CC(=O)Nc1cc(Nc2ccnc(C(C)(F)F)n2)c(-c2ccc(N(C)C)cn2)cn1` [Example 276, N-(4′-((2-(1,1-difluoroethyl)pyrimidin-4-yl)amino)-5-(dimethylamino)-[2,3′-bipyridin]-6′-yl)acetamide], for which the half-maximal inhibitory concentration (IC50) is at least 1 µM at JAK1 (IL-6 stimulation, MSD); at most 0.01 µM against Tyk2 (MSD); at most 0.01 µM at JH2 domain of human Tyk2 (setting [2]); at least 1 µM against JAK2 (IL-3 stimulation, MSD).
Regarding `COc1cnc(NC(C)=O)cc1Nc1cc(OC2CC2)nc(C(C)(F)F)n1` [Example 91, N-(4-((6-cyclopropoxy-2-(1,1-difluoroethyl)pyrimidin-4-yl)amino)-5-methoxypyridin-2-yl)acetamide], the IC50 was at least 1 µM against JAK1 (IL-6 stimulation, MSD); 0.01 to 0.1 µM at Tyk2 (MSD); at most 0.01 µM on JH2 domain of human Tyk2 (setting [2]); at least 1 µM against JAK2 (IL-3 stimulation, MSD).
`COCc1cnc(-c2cnc(NC(C)=O)cc2Nc2cc(C)nc(C(C)(F)F)n2)cn1` [Example 834, N-(4-((2-(1,1-difluoroethyl)-6-methylpyrimidin-4-yl)amino)-5-(5-(methoxymethyl)pyrazin-2-yl)pyridin-2-yl)acetamide]: the IC50 is at least 1 µM against JAK1 (IL-6 stimulated), at most 0.01 µM against Tyk2, at most 0.01 µM at JH2 domain of human Tyk2 (setting [1]) and at least 1 µM on JAK2 (IL-3 stimulated).
Turning to `COCc1cccc(-c2cnc(NC(C)=O)cc2Nc2cc(C)nc(C(C)(F)F)n2)n1` [Example 636, N-(4′-((2-(1,1-difluoroethyl)-6-methylpyrimidin-4-yl)amino)-6-(methoxymethyl)-[2,3′-bipyridin]-6′-yl)acetamide], the IC50 on JAK1 (IL-6 stimulated, MSD) is at least 1 µM; against Tyk2 (MSD) it was at most 0.01 µM; at JH2 domain of human Tyk2 (setting [3]), at most 0.01 µM; on JAK2 (IL-3 stimulated, MSD), at least 1 µM.
As to `[2H]C([2H])([2H])n1cc(-c2cc(Nc3cc(NC(C)=O)ncc3OCC)nc(C(C)(F)F)n2)cn1` [Example 314, N-(4-((2-(1,1-difluoroethyl)-6-(1-(methyl-d3)-1H-pyrazol-4-yl)pyrimidin-4-yl)amino)-5-ethoxypyridin-2-yl)acetamide], the IC50 on JAK1 (IL-6 stimulation, MSD) is at least 1 µM; at Tyk2 (MSD), at most 0.01 µM; on JH2 domain of human Tyk2 (setting [2]), at most 0.01 µM; at JAK2 (IL-3 stimulation, MSD), at least 1 µM.
As for `CC(=O)Nc1cc(Nc2cc(C)nc(C(C)(F)F)n2)c(-c2ccc(C#N)cn2)cn1` [Example 145, N-(5-cyano-4′-((2-(1,1-difluoroethyl)-6-methylpyrimidin-4-yl)amino)-[2,3′-bipyridin]-6′-yl)acetamide], the IC50 is at least 1 µM on JAK1 (IL-6 stimulation, MSD); at most 0.01 µM at Tyk2 (MSD); at most 0.01 µM at JH2 domain of human Tyk2 (setting [2]); at least 1 µM against JAK2 (IL-3 stimulation, MSD).
